# “Also recorded” adds a separate entry of the source.
# Assays:
# [1] = test system: patients with ALS; conditions: cited from earlier work
# [2] = test system: ALS motor neurons; assay: ALS motor neurons, summary of axon and neurofilament findings; type: cell-based, human; conditions: 72 hrs after addition of gastrodin
# Description: (§1) The gastrodin was diluted with dimethyl sulfoxide (DMSO) to 10 mM, added to the motor neurons differentiated at Day 25, Day 35 and Day 45 at a dosage ratio of 1:1,000, and cultured for 72 hours (hrs) for various assays.
# [3] = test system: B6SJL-Tg (SOD1*G93A) 1Gur/J transgenic mice; assay: ALS model mice: motor abilities, BBB score and survival; type: in vivo
# Description: The mice began to develop limb onsets in 80 to 90 days after birth, gradually lose ability to walk, and muscle weakness and atrophy started spreading to the upper parts of body. Most of their voluntary muscles became paralyzed and death after 110 to 120 days due to gradual loss of chewing ability and respiratory failure. The pathological characteristics include symptoms of amyotrophic lateral sclerosis such as muscular dystrophy, synaptic loss of motor neurons, degeneration and death of motor neurons, dismantling of the neuromuscular junction, etc.
# Sixty days after birth, the ALS model mice (B6SJL-Tg (SOD1*G93A) 1Gur/J) were administered with gastrodin cycles once every 30 days as a single cycle, and 5 intraperitoneal injection of gastrodin was administered (with one day interval between every two intraperitoneal injections) at the first 10 days. No injection was administered during the subsequent 20 days. A total of two cycles of dosing may be performed until 120 days after birth.
# The Example tested whether gastrodin improved the ALS symptoms of transgenic mice.
# In this Example, beginning at 60 days after birth, the mice were administered with gastrodin by intraperitoneal injection at a dose of 50 mg/kg or 200 mg/kg for 5 times (with one day interval) every 30 days, until the mice degenerated severely to the extent that the hind lambs lost motor ability completely and until sacrificed. In this Example, motor abilities were tested, and survival time was recorded in days.
# [4] = test system: SOD1^D90A motor neurons; assay: Calcium ion image analysis after KCl and glutamate stimulation; type: cell-based, human
# Description: as §1
# Cells were seeded on a Geltrex®-coated round glass slide having a diameter of 10 mm, and cultured in a neurobasal medium supplemented with RevitaCell® and compound E for 3 days. 1 μM calcium fluorescent probe Fluo-4 solution was prepared in a physiological buffer containing […], 5 mM KCl, 2 mM CaCl2, 2 mM MgCl2, 10 mM glucose and 10 mM HEPES, and the glass slide on which the cells were seeded was transferred into the 1 μM Fluo-4 solution and cultured at 37° C. for 4 min. The glass slide was transferred into a physiological buffer and cultured at 37° C. for 20 min. The glass slide with cells seeded thereon was transferred into a calcium imaging chamber for imaging under perfusion.
# Images were taken under perfusion with a physiological buffer for 30 seconds, then under perfusion with 60 mM KCl for 1 min, and then under perfusion with a physiological buffer for 5 min. Next, images were taken under perfusion with 1 mM glutamate for 1 min, and then under perfusion with a physiological buffer for 5 min. Images were captured with a microscope (Nikon ECLIPSE Ti2-E) and analyzed using NIS-Elements AR software. […]
# [5] = test system: sALS iPSC-differentiated motor neurons; assay: NF staining of motor neurons differentiated from sporadic ALS iPSCs; type: cell-based, human; conditions: after treatment with gastrodin
# Description: as §1
# (§2) A 4-well culture slide with a glass cover placed thereon was coated with 1% Geltrex®, placed at 37° C. for at least 3 to 4 hrs, washed with phosphate buffered saline (PBS) once after removal of the Geltrex®, and soaked in a culture medium until use. The embryoid bodies were dissociated with enzymes or mechanical force into smaller pieces, seeded on the 4-well culture slide, and cultured for 3 days (optionally for a longer period). […]
# (§3) Thereafter, the cells were labeled via nuclear staining by adding 200 μL of 4′,6-diamidino-2-phenylindole (DAPI) (1 μg/mL), reacting in dark for 5 to 15 min at room temperature, removing DAPI, washing with PBST twice for 5 min each, removing PBST, adding PBS to maintain the cell moisture, lifting the glass coverslip with a needle tip, reversing the glass coverslip to the side with 50% glycerol or a mounting gel, storing in dark at 4° C., observing with a fluorescence microscope or a confocal microscope and photographing, and subsequently quantifying the numbers of neurofilaments and nerve fiber beads using an OLYMPUS cellSens Dimension Desktop 2.3 software. […]
# [6] = test system: SOD1^D90A ALS motor neurons; assay: NF staining of SOD1^D90A ALS iPSC-differentiated motor neurons; type: cell-based, human; conditions: for efficacy on increasing number of nerve fibers, gastrodin compared with riluzole / reduction of spherical nerve fiber beads, gastrodin compared with riluzole: comparison of gastrodin and riluzole
# Description: as §1
# A 4-well culture slide with a glass cover placed thereon was coated with 1% Geltrex®, placed at 37° C. for at least 3 to 4 hrs, washed with phosphate buffered saline (PBS) once after removal of the Geltrex®, and soaked in a culture medium until use. The embryoid bodies were dissociated with enzymes or mechanical force into smaller pieces, seeded on the 4-well culture slide, and cultured for 3 days (optionally for a longer period). After the cells adhered and extended outwards to present rosettes with a neural tube-like or a neuronal morphology, the immunofluorescent staining was then performed.
# For the immunofluorescent staining, the medium was firstly removed, and then the cells were washed with PBS at room temperature twice. Next, 200 μL of 4% paraformaldehyde was added to the cells, and the mixture was reacted at room temperature for 5 to 15 min to fix the cells. The cells were washed with PBS for 3 times for 5 min each, and 200 μL of 99% methanol or 0.3% Triton® was added. The mixture was incubated for 5 to 15 min at 4° C., and the liquid was removed after permeabilization. The methanol, if used for fixation, was volatilized out. Then, the mixture was washed with PBS for 3 times (each for 5 min), and 200 μL of 5% horse serum was added at room temperature for at least 1 hr for blocking. […] The primary antibody was removed after conjugation for 16 hrs, followed by washing with PBS and Tween® 20 (abbreviated as PBST hereinafter) for 3 times for 5 min each, and a secondary antibody (prepared in PBS at a concentration of 1:500) was added. The secondary antibody was kept in dark for 1 hour at room temperature. After removal of the secondary antibody, the mixture was washed 3 times with PBST for 5 min each.
# Thereafter, the cells were labeled via nuclear staining by adding 200 μL of 4′,6-diamidino-2-phenylindole (DAPI) (1 μg/mL), reacting in dark for 5 to 15 min at room temperature, removing DAPI, washing with PBST twice for 5 min each, removing PBST, adding PBS to maintain the cell moisture, lifting the glass coverslip with a needle tip, reversing the glass coverslip to the side with 50% glycerol or a mounting gel, storing in dark at 4° C., observing with a fluorescence microscope or a confocal microscope and photographing, and subsequently quantifying the numbers of neurofilaments and nerve fiber beads using an OLYMPUS cellSens Dimension Desktop 2.3 software.
# In this Example, SOD1^D90A ALS iPSCs-differentiated motor neurons were used for comparing the efficacies of gastrodin and riluzole on improvement of ALS symptoms.
# [7] = test system: SOD1^G85R ALS motor neurons; assay: NF staining of SOD1^G85R ALS iPSC-differentiated motor neurons; type: cell-based, human; conditions: 10 μM gastrodin, 72 hrs, vs untreated
# Description: as §1, §2, §3
# [8] = intraperitoneal gastrodin from day 60, vs control
# [9] = 10 μM gastrodin, 72 hrs, NF staining, vs untreated
SMILES,degeneration rate of motor ability [1],neural axons [2],neurofilament accumulation [2],"roller residence time ([3]; 50 mg/kg or 200 mg/kg intraperitoneal, 5 times every 30 days from day 60, vs control)",loss of motor ability ([3]; after injection of gastrodin),mortality rate ([3]; after injection of gastrodin),symptoms at an earlier stage ([3]; after injection of gastrodin),"suppression on loss of active ability, improvement ([3]; compared to the control group)","BBB scores [3, 8]","extension of life / overall survival time [3, 8] [days]","gripping strength of the hind limbs [3, 8]",response of ALS motor neurons to KCl ([4]; KCl stimulation),"oversensitive response to glutamate (calcium ion flow) ([4]; treatment for 72 hrs, 1 mM glutamate stimulation)",amount of nerve fibers [5],nerve fiber beads [5],"amount of nerve fibers [6, 9]","spherical nerve fiber beads [6, 9]","efficacy on increasing number of nerve fibers, gastrodin compared with riluzole [6]","reduction of spherical nerve fiber beads, gastrodin compared with riluzole [6]",amount of nerve fibers [7]
"CC1=NN(c2ccccc2)C(=O)C1 [Edaravone, edaravone]",can alleviate,,,,,,,,,,,,,,,,,,,
OCc1ccc(O[C@@H]2O[C@H](CO)[C@@H](O)[C@H](O)[C@H]2O)cc1 [gastrodin],,Increased,reduced,obviously longer than that of the control; also recorded: increased,obviously delayed,reduced,delayed,about 20 days,retarded the decrease,10,clearly increased,promoted,significantly decreased,increased,decreased,increased,significantly decreased,comparable to riluzole,by an extent more than riluzole,significantly increase
"Nc1nc2ccc(OC(F)(F)F)cc2s1 [riluzole, reference compound]",,,,,,,,,,,,,,,,,,comparable to riluzole,by an extent more than riluzole,

# Source: patent US11963969B2, “Method for prevention or treatment of amyotrophic lateral sclerosis by administering gastrodin” (BUDDHIST TZU CHI MEDICAL FOUNDATION, priority 2021, dated 2024)
